Assay results: PubChem BioAssay AID1918955 (Molecular Pharmacology Branch, DTP, NCI, 2023)

Tested on: NCI/ADR-RES complex spheroid viability
Assay: Anticancer human tumor NCI/ADR-RES cell line growth inhibition;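 also: spheroids exposed to compounds for 7 days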;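 as to viability, T/C: 100% = DMSO vehicle treated spheroids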
Conditions: for IC50: curve of first compound; for viability, T/C: stronger effect = lower value
Procedure, shortened: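 Multicellular complex spheroids of tumor cells with human endothelial cells (HUVEC) and mesenchymal stem cells; the LSD1 inhibitor iadademstat was combined with standard-of-care or investigational agents. Top concentration at or near clinical Cmax, half-log dilutions; final DMSO ≤0.25%.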

[1] = second compound 0.1 µM, first compound 0.0316 µM
[2] = second compound 0.1 µM, first compound 0.1 µM
[3] = second compound 0.1 µM, first compound 0.316 µM
[4] = second compound 0.1 µM, first compound 1 µM
[5] = second compound 0.1 µM, first compound 3.16 µM
[6] = second compound 0.1 µM, first compound 10 µM
[7] = second compound 0.316 µM, first compound 0.0316 µM
[8] = second compound 0.316 µM, first compound 0.1 µM
[9] = second compound 0.316 µM, first compound 0.316 µM
[10] = second compound 0.316 µM, first compound 1 µM
[11] = second compound 0.316 µM, first compound 3.16 µM
[12] = second compound 0.316 µM, first compound 10 µM
[13] = second compound 1 µM, first compound 0.0316 µM
[14] = second compound 1 µM, first compound 0.1 µM
[15] = second compound 1 µM, first compound 0.316 µM
[16] = second compound 1 µM, first compound 1 µM
[17] = second compound 1 µM, first compound 3.16 µM
[18] = second compound 1 µM, first compound 10 µM
[19] = second compound 3.16 µM, first compound 0.0316 µM
[20] = second compound 3.16 µM, first compound 0.1 µM
[21] = second compound 3.16 µM, first compound 0.316 µM
[22] = second compound 3.16 µM, first compound 1 µM
[23] = second compound 3.16 µM, first compound 3.16 µM
[24] = second compound 3.16 µM, first compound 10 µM
[25] = second compound 10 µM, first compound 0.0316 µM
[26] = second compound 10 µM, first compound 0.1 µM
[27] = second compound 10 µM, first compound 0.316 µM
[28] = second compound 10 µM, first compound 1 µM
[29] = second compound 10 µM, first compound 3.16 µM
[30] = second compound 10 µM, first compound 10 µM
[31] = second compound 0.1 µM, first compound 0.00316 µM
[32] = second compound 0.1 µM, first compound 0.01 µM
[33] = second compound 0.316 µM, first compound 0.00316 µM
[34] = second compound 0.316 µM, first compound 0.01 µM
[35] = second compound 1 µM, first compound 0.00316 µM
[36] = second compound 1 µM, first compound 0.01 µM
[37] = second compound 3.16 µM, first compound 0.00316 µM
[38] = second compound 3.16 µM, first compound 0.01 µM
[39] = second compound 10 µM, first compound 0.00316 µM
[40] = second compound 10 µM, first compound 0.01 µM

Row | Compound | IC50 (second compound 0.1 µM) | IC50 (second compound 0.316 µM) | IC50 (second compound 1 µM) | IC50 (second compound 3.16 µM) | IC50 (second compound 10 µM) | viability, T/C [1] | viability, T/C [2] | viability, T/C [3] | viability, T/C [4] | viability, T/C [7] | viability, T/C [8] | viability, T/C [9] | viability, T/C [10] | viability, T/C [13] | viability, T/C [14] | viability, T/C [15] | viability, T/C [16] | viability, T/C [19] | viability, T/C [20] | viability, T/C [21] | further results
1 | CC(C)c1c(-c2ccccc2)nc2c(C#N)c[nH]n2c1=O + NC1CC1c1ccc(-c2cccc(O)c2)cc1 | > 10000 nM | > 10000 nM | > 10000 nM | > 10000 nM | > 10000 nM | 104% | 107% | 102% | 103% | 113% | 106% | 104% | 102% | 109% | 101% | 106% | 106% | 106% | 108% | 106% | viability, T/C [5]: 108%; viability, T/C [6]: 95.3%; viability, T/C [11]: 109%; viability, T/C [12]: 98.9%; viability, T/C [17]: 100%; viability, T/C [18]: 96.5%; viability, T/C [22]: 107%; viability, T/C [23]: 97.6%; viability, T/C [24]: 98.9%; viability, T/C [25]: 87%; viability, T/C [26]: 96.3%; viability, T/C [27]: 91.7%; viability, T/C [28]: 91.2%; viability, T/C [29]: 89.2%; viability, T/C [30]: 84.2%
2 | CC1COCCN1c1cc(-c2ccnn2C)c2ccnc(-c3ccn[nH]3)c2n1 (stereo not given) + NC1CC1c1ccc(-c2cccc(O)c2)cc1 | 11.8 nM | 13.6 nM | 12.3 nM | 12.6 nM | 13 nM | 11.9% | 2.87% | 1.82% | 1.99% | 11.9% | 2.5% | 2.17% | 2.31% | 16.2% | 2.46% | 1.61% | 1.71% | 16.9% | 2.63% | 1.85% | viability, T/C [31]: 94.5%; viability, T/C [32]: 56.5%; viability, T/C [33]: 93.9%; viability, T/C [34]: 63.8%; viability, T/C [35]: 95.2%; viability, T/C [36]: 57.5%; viability, T/C [37]: 92.3%; viability, T/C [38]: 58.4%; viability, T/C [22]: 2.16%; viability, T/C [39]: 75.9%; viability, T/C [40]: 58.6%; viability, T/C [25]: 20.3%; viability, T/C [26]: 4.64%; viability, T/C [27]: 2.38%; viability, T/C [28]: 2.48%
3 | COc1ccc([C@@H](O)c2cc(-c3ncnc4cc(N5CCOCC5)ccc34)c(F)cc2Cl)nn1 + NC1CC1c1ccc(-c2cccc(O)c2)cc1 | 3050 nM | 3240 nM | 3230 nM | 3250 nM | 1940 nM | 106% | 99.8% | 84.8% | 68.4% | 106% | 105% | 92.7% | 74% | 105% | 99.1% | 90.6% | 73.1% | 101% | 96% | 83.4% | viability, T/C [5]: 50.7%; viability, T/C [6]: 25.9%; viability, T/C [11]: 51.4%; viability, T/C [12]: 27.7%; viability, T/C [17]: 50.5%; viability, T/C [18]: 25.7%; viability, T/C [22]: 72.4%; viability, T/C [23]: 50.5%; viability, T/C [24]: 22.6%; viability, T/C [25]: 84.6%; viability, T/C [26]: 87.3%; viability, T/C [27]: 77%; viability, T/C [28]: 61.8%; viability, T/C [29]: 41.4%; viability, T/C [30]: 23.2%
4 | O=C(C=Cn1cnc(-c2cc(C(F)(F)F)cc(C(F)(F)F)c2)n1)NNc1cnccn1 + NC1CC1c1ccc(-c2cccc(O)c2)cc1 | 4.7 nM | 4.42 nM | 4.18 nM | 4.79 nM | 4.02 nM | 13% | 6.61% | 1.72% | 0.88% | 12.6% | 7.91% | 2.06% | 1.08% | 13.9% | 8.19% | 1.99% | 0.85% | 16.5% | 10.7% | 2.96% | viability, T/C [31]: 65.4%; viability, T/C [32]: 19.6%; viability, T/C [33]: 60.6%; viability, T/C [34]: 23.3%; viability, T/C [35]: 59.5%; viability, T/C [36]: 20.4%; viability, T/C [37]: 64.2%; viability, T/C [38]: 22.7%; viability, T/C [22]: 0.98%; viability, T/C [39]: 57.1%; viability, T/C [40]: 22.1%; viability, T/C [25]: 16%; viability, T/C [26]: 10.1%; viability, T/C [27]: 5.13%; viability, T/C [28]: 2.52%
5 | Nc1ncn(C2CC(O)C(CO)O2)c(=O)n1 (stereo not given) + NC1CCC(NC2CC2c2ccccc2)CC1 | 82.7 nM | 126 nM | 76.7 nM | 59.7 nM | 18.5 nM | 73.4% | 48.6% | 26.1% | 23.5% | 78.3% | 53% | 33.8% | 18.9% | 74.6% | 41% | 28.2% | 19.4% | 63.1% | 40% | 24.1% | viability, T/C [31]: 109%; viability, T/C [32]: 113%; viability, T/C [33]: 106%; viability, T/C [34]: 91%; viability, T/C [35]: 105%; viability, T/C [36]: 91.7%; viability, T/C [37]: 93.3%; viability, T/C [38]: 83.3%; viability, T/C [22]: 20.8%; viability, T/C [39]: 63%; viability, T/C [40]: 57.8%; viability, T/C [25]: 43.1%; viability, T/C [26]: 27.3%; viability, T/C [27]: 17.2%; viability, T/C [28]: 15.9%
